Measured values reported in ChEMBL document CHEMBL3877269, “Structure-activity relationships and optimization of acyclic acylphloroglucinol analogues as novel antimicrobial agents” (Eur J Med Chem, 2017).
In brackets after ≈: the same amount, converted by molar mass. Activity calls are given as the source filed them. The rule behind the calls is not given here.

Assays:
[1] = test system: Staphylococcus aureus; experiment: Antibacterial activity against methicillin-resistant Staphylococcus aureus JCSC 2172 after 8 to 12 hrs by resazurin dye based microdilution method; type: functional
[2] = test system: Staphylococcus aureus; experiment: Antibacterial activity against drug-susceptible Staphylococcus aureus ATCC 6538 after 8 to 12 hrs by resazurin dye based microdilution method; type: functional
[3] = Solubility of the compound in DMSO; type: physicochemical
[4] = test system: Bacillus thuringiensis; experiment: Antibacterial activity against Bacillus thuringiensis ATCC 10792 after 8 to 12 hrs by resazurin dye based microdilution method; type: functional
[5] = test system: Bacillus cereus; experiment: Antibacterial activity against Bacillus cereus ATCC 10876 after 8 to 12 hrs by resazurin dye based microdilution method; type: functional
[6] = test system: Bacillus subtilis; experiment: Antibacterial activity against Bacillus subtilis ATCC 11774 after 8 to 12 hrs by resazurin dye based microdilution method; type: functional
[7] = test system: Escherichia coli; experiment: Antibacterial activity against Escherichia coli ATCC 8739 after 8 to 12 hrs by resazurin dye based microdilution method; type: functional
[8] = Cytotoxicity against mouse RAW264.7 cells assessed as reduction in cell viability after 24 hrs by MTT assay; type: toxicity
[9] = Selectivity ratio of IC50 for mouse RAW264.7 cells to MIC for methicillin-resistant Staphylococcus aureus JCSC 2172; type: ADME
[10] = test system: Staphylococcus aureus; experiment: Bactericidal activity against methicillin-resistant Staphylococcus aureus JCSC 2172 assessed as 3-log reduction in bacterial colony at 4 times MIC after 10 hrs by time-kill assay; type: functional
[11] = test system: Staphylococcus aureus; experiment: Disruption of cytoplasmic membrane potential in methicillin-resistant Staphylococcus aureus JCSC 2172 at 10 ug/ml after 4 hrs by SYTOX green dye based fluorescence assay; type: functional
[12] = test system: Staphylococcus aureus; experiment: Potency index, ratio of vancomycin MIC to compound MIC for methicillin-resistant Staphylococcus aureus JCSC 2172; type: functional
[13] = test system: Staphylococcus aureus; experiment: Bacteriostatic activity against methicillin-resistant Staphylococcus aureus JCSC 2172 at 0.5 to 2 times MIC up to 10 hrs by time-kill assay; type: functional
[14] = test system: Staphylococcus aureus; experiment: Bactericidal activity against methicillin-resistant Staphylococcus aureus JCSC 2172 assessed as reduction in CFU count at 4 times MIC after 24 hrs by time-kill assay; type: functional; design: scale not given: the % may be the effect or the level left
[15] = test system: Staphylococcus aureus; experiment: Bactericidal activity against methicillin-resistant Staphylococcus aureus JCSC 2172 assessed as 3-log reduction in bacterial colony at 4 times MIC up to 4 hrs by time-kill assay; type: functional
[16] = test system: Staphylococcus aureus; experiment: Bactericidal activity against methicillin-resistant Staphylococcus aureus JCSC 2172 assessed induction of membrane potential dissipation at 0.5 to 8 times MIC by DiSC3-5 probe based fluorescence assay; type: functional
[17] = test system: Staphylococcus aureus; experiment: Disruption of cytoplasmic membrane potential in methicillin-resistant Staphylococcus aureus JCSC 2172 at 8 times MIC after 4 hrs by SYTOX green dye based fluorescence assay; type: functional
[18] = test system: Staphylococcus aureus; experiment: Induction of cell lysis in methicillin-resistant Staphylococcus aureus JCSC 2172 at 8 times MIC after 4 hrs by osmium tetroxide staining based scanning electron microscopic method; type: functional

Compound | MIC [1] | MIC [2] | MIC [4] | MIC [5] | MIC [6] | MIC [7] | IC50 at 24 h [8] | selectivity ratio [9] | other results
CCCC(=O)c1c(O)cc(O)c([C@@H](CC(C)C)C2=C(O)C(C)(C)C(=O)C(C)(C)C2=O)c1O | 32 µg/mL (≈ 71.7 µM) | 32 µg/mL (≈ 71.7 µM) | – | – | – | – | – | – | –
CCCCCCCCCCCCCCCC(=O)c1c(O)cc(O)c([C@@H](CC(C)C)C2=C(O)C(C)(C)C(=O)C(C)(C)C2=O)c1O | 1 to 2 µg/mL (≈ 1.63 to 3.25 µM) | 1 µg/mL (≈ 1.63 µM) | 2 µg/mL (≈ 3.25 µM) | 8 µg/mL (≈ 13 µM) | 16 µg/mL (≈ 26 µM) | > 32 µg/mL | 17.5 µg/mL (≈ 28.5 µM) | 17.5 | solubility [3]: Insoluble
CC(=O)c1c(O)cc(O)c([C@@H](CC(C)C)C2=C(O)C(C)(C)C(=O)C(C)(C)C2=O)c1O | 4 µg/mL (≈ 9.56 µM) | 4 µg/mL (≈ 9.56 µM) | – | – | – | – | – | – | –
CN[C@H](CC(C)C)C(=O)N[C@H]1C(=O)N[C@@H](CC(N)=O)C(=O)N[C@H]2C(=O)N[C@H]3C(=O)N[C@H](C(=O)N[C@H](C(=O)O)c4cc(O)cc(O)c4-c4cc3ccc4O)[C@H](O)c3ccc(c(Cl)c3)Oc3cc2cc(c3O[C@@H]2O[C@H](CO)[C@@H](O)[C@H](O)[C@H]2O[C@H]2C[C@](C)(N)[C@H](O)[C@H](C)O2)Oc2ccc(cc2Cl)[C@H]1O [VANCOMYCIN] | – | – | 1 µg/mL (≈ 0.69 µM) | 0.25 µg/mL (≈ 0.173 µM) | 0.13 µg/mL (≈ 0.0897 µM) | > 32 µg/mL | – | – | Activity [10]: Active
CC[C@H](C)[C@H](NC(=O)CN)C(=O)NCC(=O)N[C@@H](C)C(=O)N[C@H](C(=O)N[C@@H](CC(C)C)C(=O)N[C@@H](CCCCN)C(=O)N[C@H](C(=O)N[C@@H](CC(C)C)C(=O)N[C@H](C(=O)N[C@H](C(=O)NCC(=O)N[C@@H](CC(C)C)C(=O)N1CCC[C@H]1C(=O)N[C@@H](C)C(=O)N[C@@H](CC(C)C)C(=O)N[C@H](C(=O)N[C@@H](CO)C(=O)N[C@@H](Cc1c[nH]c2ccccc12)C(=O)N[C@H](C(=O)N[C@@H](CCCCN)C(=O)N[C@@H](CCCNC(=N)N)C(=O)N[C@@H](CCCCN)C(=O)N[C@@H](CCCNC(=N)N)C(=O)N[C@@H](CCC(N)=O)C(=O)N[C@@H](CCC(N)=O)C(N)=O)[C@@H](C)CC)[C@@H](C)CC)[C@@H](C)O)[C@@H](C)O)C(C)C)C(C)C | – | – | – | – | – | – | – | – | Activity [11]: Active
CCCCCCCCCCCCCC(=O)c1c(O)cc(O)c([C@@H](CC(C)C)C2=C(O)C(C)(C)C(=O)C(C)(C)C2=O)c1O | 1 µg/mL (≈ 1.7 µM) | 0.5 µg/mL (≈ 0.852 µM) | 2 µg/mL (≈ 3.41 µM) | 4 µg/mL (≈ 6.82 µM) | 8 µg/mL (≈ 13.6 µM) | > 32 µg/mL | 13.1 µg/mL (≈ 22.3 µM) | 13.1 | solubility [3]: Insoluble
CCCCCCCCC(=O)c1c(O)cc(O)c([C@@H](CC(C)C)C2=C(O)C(C)(C)C(=O)C(C)(C)C2=O)c1O | 0.5 µg/mL (≈ 0.968 µM) | 0.25 µg/mL (≈ 0.484 µM) | 0.5 µg/mL (≈ 0.968 µM) | 0.5 µg/mL (≈ 0.968 µM) | 0.25 µg/mL (≈ 0.484 µM) | > 32 µg/mL | 8.2 µg/mL (≈ 15.9 µM) | 16.4 | –
CC(C)C[C@@H](C1=C(O)C(C)(C)C(=O)C(C)(C)C1=O)c1c(O)cc(O)c(C(=O)C2CCC2)c1O | 16 µg/mL (≈ 34.9 µM) | 16 µg/mL (≈ 34.9 µM) | – | – | – | – | – | – | –
CCCCCCC(=O)c1c(O)cc(O)c([C@@H](CC(C)C)C2=C(O)C(C)(C)C(=O)C(C)(C)C2=O)c1O | 0.5 µg/mL (≈ 1.02 µM) | 0.5 µg/mL (≈ 1.02 µM) | 0.5 µg/mL (≈ 1.02 µM) | 0.5 µg/mL (≈ 1.02 µM) | 0.25 µg/mL (≈ 0.512 µM) | > 32 µg/mL | 8.8 µg/mL (≈ 18 µM) | 16.7 | –
CCCCCC(=O)c1c(O)cc(O)c([C@@H](CC(C)C)C2=C(O)C(C)(C)C(=O)C(C)(C)C2=O)c1O | 2 µg/mL (≈ 4.21 µM) | 2 µg/mL (≈ 4.21 µM) | – | – | – | – | – | – | –
CC(C)CC(=O)c1c(O)cc(O)c([C@@H](CC(C)C)C2=C(O)C(C)(C)C(=O)C(C)(C)C2=O)c1O | 8 µg/mL (≈ 17.4 µM) | 8 µg/mL (≈ 17.4 µM) | – | – | – | – | – | – | –
CCCCCCCCCCC(=O)c1c(O)cc(O)c([C@@H](CC(C)C)C2=C(O)C(C)(C)C(=O)C(C)(C)C2=O)c1O | 0.5 µg/mL (≈ 0.918 µM) | 0.25 µg/mL (≈ 0.459 µM) | 0.25 µg/mL (≈ 0.459 µM) | 0.5 µg/mL (≈ 0.918 µM) | 0.25 µg/mL (≈ 0.459 µM) | > 32 µg/mL | 11.1 µg/mL (≈ 20.4 µM) | 22.2 | –
CC(C)C[C@@H](C1=C(O)C(C)(C)C(=O)C(C)(C)C1=O)c1c(O)cc(O)c(C(=O)C2CCCC2)c1O | > 32 µg/mL | 32 µg/mL (≈ 67.7 µM) | – | – | – | – | – | – | –
CCCCCCCCCCCC(=O)c1c(O)cc(O)c([C@@H](CC(C)C)C2=C(O)C(C)(C)C(=O)C(C)(C)C2=O)c1O | 0.5 µg/mL (≈ 0.895 µM) | 0.5 µg/mL (≈ 0.895 µM) | 0.5 µg/mL (≈ 0.895 µM) | 1 µg/mL (≈ 1.79 µM) | 0.25 µg/mL (≈ 0.447 µM) | > 32 µg/mL | 7.9 µg/mL (≈ 14.1 µM) | 15.8 | –
CC(C)C[C@@H](C1=C(O)C(C)(C)C(=O)C(C)(C)C1=O)c1c(O)cc(O)c(C(=O)Cc2ccccc2)c1O | 16 µg/mL (≈ 32.4 µM) | 16 µg/mL (≈ 32.4 µM) | – | – | – | – | – | – | –
CC(C)C[C@@H](C1=C(O)C(C)(C)C(=O)C(C)(C)C1=O)c1c(O)cc(O)c(C(=O)C2CCCCC2)c1O | 4 µg/mL (≈ 8.22 µM) | 4 µg/mL (≈ 8.22 µM) | – | – | – | – | – | – | –
CCCCCCCCCC(=O)c1c(O)cc(O)c([C@@H](CC(C)C)C2=C(O)C(C)(C)C(=O)C(C)(C)C2=O)c1O | 0.25 µg/mL (≈ 0.471 µM) | 0.25 µg/mL (≈ 0.471 µM) | 0.5 µg/mL (≈ 0.942 µM) | 1 µg/mL (≈ 1.88 µM) | 0.25 µg/mL (≈ 0.471 µM) | > 32 µg/mL | 5.1 µg/mL (≈ 9.61 µM) | 20.4 | –
CC(C)C[C@@H](C1=C(O)C(C)(C)C(=O)C(C)(C)C1=O)c1c(O)cc(O)c(C(=O)CCc2ccccc2)c1O | 8 µg/mL (≈ 15.7 µM) | 4 µg/mL (≈ 7.86 µM) | – | – | – | – | – | – | –
CCCCC(=O)c1c(O)cc(O)c([C@@H](CC(C)C)C2=C(O)C(C)(C)C(=O)C(C)(C)C2=O)c1O | 8 µg/mL (≈ 17.4 µM) | 4 µg/mL (≈ 8.68 µM) | – | – | – | – | – | – | –
CC(C)C[C@@H](C1=C(O)C(C)(C)C(=O)C(C)(C)C1=O)c1c(O)cc(O)c(C(=O)C(C)C)c1O | 16 µg/mL (≈ 35.8 µM) | 16 µg/mL (≈ 35.8 µM) | – | – | – | – | – | – | –
CCC(=O)c1c(O)cc(O)c([C@@H](CC(C)C)C2=C(O)C(C)(C)C(=O)C(C)(C)C2=O)c1O | 8 µg/mL (≈ 18.5 µM) | 8 µg/mL (≈ 18.5 µM) | – | – | – | – | – | – | –
CCCCCCCC(=O)c1c(O)cc(O)c([C@@H](CC(C)C)C2=C(O)C(C)(C)C(=O)C(C)(C)C2=O)c1O | 0.25 µg/mL (≈ 0.497 µM) | 0.25 µg/mL (≈ 0.497 µM) | 0.25 µg/mL (≈ 0.497 µM) | 0.25 µg/mL (≈ 0.497 µM) | 0.13 µg/mL (≈ 0.259 µM) | > 32 µg/mL | 5.1 µg/mL (≈ 10.1 µM) | 20.4 | Ratio [12]: 4; Activity [13]: >90%; Activity [14]: 99.99%; Activity [15]: Active; Activity [16]: Active; Activity [17]: Active; Activity [18]: Active
CC(C)C[C@@H](C1=C(O)C(C)(C)C(=O)C(C)(C)C1=O)c1c(O)cc(O)c(C=O)c1O | > 32 µg/mL | > 32 µg/mL | – | – | – | – | – | – | –
